Tests used:
[1] = target: T1, recombinant human DNA topo I (Homo sapiens, UniProt P11387); test: Topo I inhibitory assay (pBR322 relaxation); type: biochemical
T1 construct: purchased Topo GEN INC., USA
T1 sequence (P11387 1-765): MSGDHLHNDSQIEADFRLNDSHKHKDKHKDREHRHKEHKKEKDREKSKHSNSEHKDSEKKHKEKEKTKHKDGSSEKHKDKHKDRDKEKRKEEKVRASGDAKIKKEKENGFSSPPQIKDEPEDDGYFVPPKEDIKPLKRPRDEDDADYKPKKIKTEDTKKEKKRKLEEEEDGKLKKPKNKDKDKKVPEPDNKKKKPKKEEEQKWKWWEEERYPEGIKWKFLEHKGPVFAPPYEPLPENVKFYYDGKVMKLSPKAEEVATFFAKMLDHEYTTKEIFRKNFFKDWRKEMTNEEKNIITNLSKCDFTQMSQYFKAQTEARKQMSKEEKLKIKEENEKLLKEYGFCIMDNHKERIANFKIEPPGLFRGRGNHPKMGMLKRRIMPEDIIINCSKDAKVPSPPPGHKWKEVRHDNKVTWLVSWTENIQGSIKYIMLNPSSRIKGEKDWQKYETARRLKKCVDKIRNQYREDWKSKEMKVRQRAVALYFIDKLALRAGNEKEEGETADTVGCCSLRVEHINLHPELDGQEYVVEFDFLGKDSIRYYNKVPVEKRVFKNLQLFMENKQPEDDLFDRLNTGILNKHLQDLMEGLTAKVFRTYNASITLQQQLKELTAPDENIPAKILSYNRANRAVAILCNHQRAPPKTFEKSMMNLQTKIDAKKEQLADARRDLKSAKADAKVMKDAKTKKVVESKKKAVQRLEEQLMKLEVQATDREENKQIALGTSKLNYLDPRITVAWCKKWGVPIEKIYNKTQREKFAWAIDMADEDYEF
Experimental: (§1) All the tested compounds were dissolved in DMSO and the DNA topoisomerase I and II inhibitory activity of each compound was measured as follows according to previously reported methods. Mixture comprising of 100 ng supercoiled pBR322 plasmid DNA (Thermo Scientific, USA) and 0.2 ~ 1 unit of recombinant human DNA topo I (Topo GEN INC., USA) or topo IIα (USB Corp., USA) was incubated with or without the prepared compounds in the assay buffer (For topo I, 10 mM Tris-HCl (pH 7.9), 150 mM NaCl and 0.1% BSA, 0.1 mM spermidine and 5% glycerol; for topo II, 10 mM Tris-HCl (pH 7.9), 50 mM NaCl, 50 mM KCl, 5 mM MgCl2, 1 mM EDTA, 1 mM ATP and […] BSA) for 30 min at 37 ◦C. The reaction with final volume of 10 μL was stopped by adding the topo stop buffer (For topo I, 10% SDS solution containing 0.2% bromophenol blue, 0.2% xylene cyanol and 30% glycerol; for topo II, 7 mM EDTA). The reaction products were electrophoresed on 0.8% agarose gel at 50 V for 1 h with TAE electrophoresis buffer. The gels were stained in an EtBr solution (0.5 mg/mL) and visualized by transillumination with UV light and were quantitated using Alpha Tech ImagerTM (Alpha Innotech Corp., USA).

[2] = Cell viability assay (MTT) on normal cell line; type: cell-based; settings: human, MCF-10A mammary epithelial cells, 50 µM of compound;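 also: values are percent cell viability not percent inhibition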
Experimental: To study the effect of 4a-l and 5a-c on normal cell lines, a cell viability assay was done using the MCF-10A (human mammary gland epithelial) cell line ([Abdelbaset et al., 2019]; [Al-Wahaibi et al., 2020]). This study uses a concentration of 50 µM of the investigated compound for 4 days, after which cell viability is evaluated.
To study the effect of 4a-l and 5a-c on normal cell lines, a cell viability assay was done using the MCF-10A (human mammary gland epithelial) cell line ([Abdelbaset et al., 2019]; [Al-Wahaibi et al., 2020]). See Supplementary Appendix S1A.
MTT assay was carried out to study the effect of compounds on mammary epithelial cells (MCF-10A). The medium in which cells were propagated contained Dulbecco's modified Eagle's medium (DMEM)/ Ham's F-12 medium (1:1) supplemented with epidermal growth factor (20 ng/mL), hydrocortisone (500 ng/mL), insulin (10 μg/mL), 2 mM glutamine and 10% fetal calf serum. After every 2-3 days, the cells were passaged using trypsin ethylenediamine tetra acetic acid (EDTA). The cells were seeded at a density of 10^4 cells mL^-1 in flat-bottomed culture plates containing 96 wells each. After 24 h, medium was removed from the plates and the compounds in (in 0.1% DMSO) were added (in 200 μL medium to yield a final concentration of 0.1% v/v) to the wells of plates. A single compound was designated with four wells followed by incubation of plates for 96h at 37°C. After incubation, medium was removed completely from the plates followed by addition of MTT (0.4 mg/mL in medium) to each well and subsequent incubation of plates for 3h. MTT (along with the medium) was removed and DMSO (150μL) was added to each well of the culture plates, followed by vortexing and subsequent measurement of absorbance (at 540 nm) using microplate reader. The data are shown as percentage inhibition of proliferation in comparison with controls containing 0.1% DMSO.

topo IIα = target: T2, topo IIα (Homo sapiens, UniProt P11388); test: Topo IIα inhibitory assay (pBR322 relaxation); type: biochemical
T2 construct: purchased USB Corp., USA
T2 sequence (P11388 whole entry): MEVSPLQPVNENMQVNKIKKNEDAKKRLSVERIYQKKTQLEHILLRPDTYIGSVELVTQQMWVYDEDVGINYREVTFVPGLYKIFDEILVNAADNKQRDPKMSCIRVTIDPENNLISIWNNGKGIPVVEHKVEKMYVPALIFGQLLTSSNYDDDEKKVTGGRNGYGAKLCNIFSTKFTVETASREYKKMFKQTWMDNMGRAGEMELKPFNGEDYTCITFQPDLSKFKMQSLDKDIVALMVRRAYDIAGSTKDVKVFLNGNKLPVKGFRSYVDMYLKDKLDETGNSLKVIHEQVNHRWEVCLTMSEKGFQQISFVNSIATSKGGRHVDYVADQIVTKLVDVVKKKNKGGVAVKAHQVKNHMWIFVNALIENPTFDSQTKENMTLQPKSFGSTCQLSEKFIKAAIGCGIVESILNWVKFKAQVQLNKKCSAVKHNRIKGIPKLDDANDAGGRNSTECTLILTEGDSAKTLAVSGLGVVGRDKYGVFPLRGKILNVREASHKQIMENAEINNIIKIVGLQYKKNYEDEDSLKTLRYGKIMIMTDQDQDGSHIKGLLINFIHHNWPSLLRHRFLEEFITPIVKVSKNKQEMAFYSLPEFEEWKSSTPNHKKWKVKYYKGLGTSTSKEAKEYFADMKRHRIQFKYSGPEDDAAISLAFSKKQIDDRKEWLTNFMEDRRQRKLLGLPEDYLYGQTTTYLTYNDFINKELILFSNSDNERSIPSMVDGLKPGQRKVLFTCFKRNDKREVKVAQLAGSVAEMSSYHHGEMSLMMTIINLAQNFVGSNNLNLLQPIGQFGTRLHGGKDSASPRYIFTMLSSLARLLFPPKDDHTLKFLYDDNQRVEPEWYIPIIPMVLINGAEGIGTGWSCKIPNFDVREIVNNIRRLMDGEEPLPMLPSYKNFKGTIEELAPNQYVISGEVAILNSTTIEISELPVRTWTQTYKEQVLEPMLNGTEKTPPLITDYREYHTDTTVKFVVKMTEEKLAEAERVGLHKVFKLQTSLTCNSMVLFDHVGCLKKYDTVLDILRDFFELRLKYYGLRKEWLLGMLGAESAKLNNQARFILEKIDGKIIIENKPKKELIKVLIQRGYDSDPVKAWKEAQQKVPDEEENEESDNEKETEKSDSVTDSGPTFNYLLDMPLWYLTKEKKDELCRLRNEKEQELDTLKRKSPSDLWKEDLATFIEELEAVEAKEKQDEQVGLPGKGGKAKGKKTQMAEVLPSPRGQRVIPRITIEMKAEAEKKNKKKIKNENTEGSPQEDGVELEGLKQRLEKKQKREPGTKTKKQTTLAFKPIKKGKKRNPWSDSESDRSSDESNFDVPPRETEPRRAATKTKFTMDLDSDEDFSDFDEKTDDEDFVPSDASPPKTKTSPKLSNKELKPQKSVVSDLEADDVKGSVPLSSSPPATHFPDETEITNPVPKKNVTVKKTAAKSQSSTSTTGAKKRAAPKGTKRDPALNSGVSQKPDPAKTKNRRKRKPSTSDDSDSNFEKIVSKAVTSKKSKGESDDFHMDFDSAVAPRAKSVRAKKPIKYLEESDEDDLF
Experimental: as §1

[3] = tested on: four cancer cell lines (A-549, MCF-7, Panc-1, HT-29); test: Antiproliferative assay, average over the four cancer cell lines (GI50); settings: read-out: Antiproliferative activity IC50, Average (mean GI50)
Experimental: (§4) The IC50 of each compound was calculated using doxorubicin as the reference.
(§5) To explore the antiproliferative potential of compounds MTT assay was performed according to previously reported procedure using different cell lines to explore the antiproliferative potential of compounds propidium iodide fluorescence assay was performed using different cell lines. To calculate the total nuclear DNA, a fluorescent dye (propidium iodide, PI) is used which can attach to the DNA, thus offering a quick and precise technique. PI cannot pass through the cell membrane and its signal intensity can be considered as directly proportional to quantity of cellular DNA. Cells whose cell membranes are damaged or have changed permeability are counted as dead ones. The assay was performed by seeding the cells of different cell lines at a density of 3000-7500 cells/well (in 200µl medium) in culture plates followed by incubation for 24h at 37 °C in humidified 5% CO2/95% air atmospheric conditions. The medium was removed; the compounds were added to the plates at 10 µM concentrations (in 0.1% DMSO) in triplicates, followed by incubation for 48 h. DMSO (0.1%) was used as control. After incubation, medium was removed followed by the addition of PI (25 µl, 50µg/mL in water/medium) to each well of the plates. At -80 °C, the plates were allowed to freeze for 24 h, followed by thawing at 25 °C. A fluorometer (Polar-Star BMG Tech) was used to record the readings at excitation and emission wavelengths of 530 and 620 nm for each well. The percentage cytotoxicity of compounds was calculated using the following formula:

[4] = tested on: MCF-7 (breast cancer cell line); test: Antiproliferative assay, MCF-7; type: cell-based; settings: Homo sapiens, MCF7; read-out: Antiproliferative activity IC50 ± SEM, MCF-7
Source text: (§2) See Supplementary Appendix S1A.
(§3) DMSO (0.1%) was used as control.

[5] = tested on: Panc-1 (pancreas cancer cell line); test: Antiproliferative assay, Panc-1; type: cell-based; settings: Homo sapiens, read-out: Antiproliferative activity IC50 ± SEM, Panc-1
Source text: as §2, §3

[6] = tested on: HT-29 (colon cancer cell line); test: Antiproliferative assay, HT-29; settings: Homo sapiens, HT-29, read-out: Antiproliferative activity IC50 ± SEM, HT-29
Experimental: as §4, §5

[7] = tested on: A-549 (epithelial cancer cell line); test: Antiproliferative assay, A-549; type: cell-based; settings: Homo sapiens, A549; read-out: Antiproliferative activity IC50 ± SEM, A-549
Source text: as §2, §3

| inhibition at 20 µM [1] [%] | inhibition at 100 µM [1] [%] | inhibition at 20 µM (topo IIα) [%] | inhibition at 100 µM (topo IIα) [%] | IC50 [3] [µM] | melting point [°C] | IC50 [4] [µM] | IC50 [5] [µM] | IC50 [6] [µM] | IC50 [7] [µM] | Structure (SMILES) | viability at 4 days, 50 µM [2] [%] |
| --- | --- | --- | --- | --- | --- | --- | --- | --- | --- | --- | --- |
| 34.7 | 71.6 | 21.7 | 54.2 | 1.35 | 248 | 1.2 ± 0.1 | 1.3 ± 0.1 | 1.4 ± 0.1 | 1.5 ± 0.1 | O=c1cc(/N=C(\C2CCCC2)N2CCCCC2)c2cc(Cl)ccc2[nH]1 [Compound 4d, (E) 4-((Cyclopentyl(piperidin-1-yl)methylene)amino)-6-chloroquinolin-2(1H)-one] | 92 |
| 39.1 | 81.4 | 25.6 | 60.4 | 1.2 | 184 | 1.1 ± 0.1 | 1.2 ± 0.1 | 1.2 ± 0.1 | 1.3 ± 0.1 | Cc1cccc2c(/N=C(\C3CCCC3)N3CCCCC3)cc(=O)[nH]c12 [Compound 4e, (E) 4-((Cyclopentyl(piperidin-1-yl)methylene)amino)-8-methylquinolin-2(1H)-one] | 90 |
| 29.6 | 65.9 | 22.3 | 57.2 | 1.5 | 222 | 1.4 ± 0.1 | 1.5 ± 0.1 | 1.6 ± 0.1 | 1.5 ± 0.1 | Cc1ccc2[nH]c(=O)cc(/N=C(\C3CCCC3)N3CCCCC3)c2c1 [Compound 4b, (E) 4-((Cyclopentyl(piperidin-1-yl)methylene)amino)-6-methylquinolin-2(1H)-one] | 92 |
| 46.7 | 84.8 |  | 23.8 | 1 | 342 | 0.8 ± 0.1 | 0.9 ± 0.1 | 1.1 ± 0.1 | 1.1 ± 0.1 | Cn1c(=O)cc(/N=C(\C2CCCC2)N2CCN(/C(=N/c3cc(=O)n(C)c4ccccc34)C3CCCC3)CC2)c2ccccc21 [Compound 5c, 4,4'-((1E,1′E)-(piperazine-1,4-diylbis(cyclopentylmethanylylidene))bis(azanylylid-ene))bis(1-methylquinolin-2(1H)-one)] | 89 |
